We go through four compounds from patent US10053459B2, “Life-extending agent, life extension method using the life-extending agent, novel dual oxidase activator, method for activating dual oxidase, production of life-extending agent, and production of dual oxidase activator” (National University Corporation Nagoya University, priority 2014, dated 2018).

Counter-ions that a name gives are not always drawn.

The nature of series [1]: Stability of test substance in the petri dishes used in the life test (LC analysis). Conditions: for Main impurities / Test substance (%): in petri dish medium used in the life test. It is filed as physicochemical. As for the experimental part:
The analysis of PQQ sodium salt was conducted under analysis conditions given below. PQQ concentration and purity were measured by high-performance liquid chromatography under conditions shown below.
Apparatus: high-performance liquid chromatography, LC-2010 manufactured by Shimadzu Corp.
Column: YMC-Pack ODS-A, 150×4.6 mm I.D.
Measurement temperature: 40° C.
Detection: absorbance at 259 nm
Eluent: 30 mM acetic acid/70 mM ammonium acetate (pH 5.1)
The reduced pyrroloquinoline quinone, the acetone adduct of pyrroloquinoline quinone, and the IPQ trisodium salt in the petri dishes used in the life test were evaluated for their stability by liquid chromatography analysis (LC analysis). The liquid chromatography analysis can be conducted according to those described above.

Series [2] concerns nematode C. elegans, wild-type. Briefly: Life test (life assay) of nematode on medium containing the test substance. In kind it is in vivo. The conditions noted are these: for average life / life-extending effect: 5.0 mM in medium vs 0 mM, FIGS. 3 and 4. As for the experimental part:
Pyrroloquinoline quinone disodium salt was mixed with water and sodium hydroxide to obtain test sample concentrate 1 of pH 6. The content of the pyrroloquinoline quinone disodium salt in the test sample concentrate 1 was adjusted to 30 mM. The test sample concentrate 1 was autoclave-sterilized for use. […] Meanwhile, to each E. coli solution cultured in an LB medium (Luria-Bertani broth), the test sample concentrate 1 was added so as to attain the same concentration as that of the pyrroloquinoline quinone disodium salt in the medium of each of the prepared petri dishes. 100 μL of the obtained E. coli solution was seeded in a circular pattern of approximately 2 cm in diameter to the center of each petri dish. […] The petri dish was wrapped in Parafilm during storage. […] These individuals were excluded from the data. […] Petri dishes having media containing different concentrations of the acetone adduct were prepared by the same operation as in Example 1 except that the amount of the test sample concentrate 2 added was adjusted such that the concentration of the acetone adduct in each medium solution was 0 mM (Comparative Example 2) and 5.0 mM (Example 5). […] Petri dishes having media containing different concentrations of the IPQ trisodium salt were prepared by the same operation as in Example 1 except that the amount of the test sample concentrate 3 added was adjusted such that the concentration of the IPQ trisodium salt in each medium solution was 0 mM (Comparative Example 3) and 5.0 mM (Comparative Example 4).

The nature of series [3]: Stability of reduced PQQ in agar medium, preservation test (LC and UV spectrum analysis). In kind it is physicochemical. The conditions noted are these: 30° C. for 3 days. As for the experimental part:
Ultraviolet-visible spectra were measured using a UV spectrometer UV1800 manufactured by Shimadzu Corp.
Reduced PQQ was added to sterile water to prepare a 30 mM dispersion. This dispersion was added so as to make 5 mM in the composition for evaluation described above to prepare a petri dish. The preservation test was conducted at 30° C. for 3 days, followed by LC analysis and UV spectrum analysis. The reduced formed is converted to PQQ under neutral conditions. Therefore, the reduced state can be confirmed by detecting PQQ by the LC analysis and measuring the UV spectrum of a solution thereof in dimethyl sulfoxide. As a result of confirming the state of the reduced PQQ in an agar medium in this way, 86% of all PQQs maintained the reduced state.

The test system of series [4] is nematode variant gas-1 (fc2). Briefly: Life test using variant gas-1 (fc2). It is filed as in vivo, C. elegans. An excerpt:
(§1) Grown-up individuals were used in the life assay.
(§2) The petri dish was wrapped in Parafilm during storage. […] These individuals were excluded from the data.

Series [5] concerns nematode line OB265bli-3 (e767); imEx144[bli-3genomic clone]. Briefly: Life test using line OB265 bli-3 (e767); imEx144[bli-3genomic clone]. It is filed as in vivo, C. elegans.
Source text: as §1, §2

For series [6], the system named is nematode variant pmk-3 (ok-169). As for the experimental part:
(§3) 7.2 g of NaCl, 48 g of agar, 6 g of Bactopeptone (manufactured by Becton, Dickinson and Company), and water (2.4 L including the amount of the sample concentrate to be added) were added into each flask. The flask was autoclaved at 120° C. for 20 minutes or longer and then cooled until the surface temperature of the flask became approximately 45° C. To this flask, 60 mL of a 1 M potassium phosphate solution, 2.4 mL of a 1 M CaCl2 solution, 2.4 mL of a 1 M MgSO4 solution, 2.4 mL of a 750 mg/150 mL cholesterol solution, and a predetermined amount of the 30 mM test sample concentrate 1 were added to obtain a medium solution. The amount of the test sample concentrate 1 added was adjusted such that the concentration of the pyrroloquinoline quinone disodium salt in the medium solution was 0 mM (Comparative Example 1), 0.1 mM (Example 1), 1.0 mM (Example 2), 3.0 mM (Example 3), and 5.0 mM (Example 4). The flask was further cooled until the surface temperature of the flask reached 40 to 41° C. 14 mL of the medium solution was added to each polystyrene petri dish having a diameter of 6 cm and cooled to room temperature to prepare petri dishes having media containing different concentrations of the pyrroloquinoline quinone disodium salt.
(§4) In order to synchronize the ages of nematode individuals at the start of the experiment, parent nematodes were allowed to lay eggs and then removed, and individuals evenly grown for a given period of time after hatching were used. Specifically, five adults (individuals under incubation) were selected and transferred to each petri dish, which was then left at 20° C. for 2 hours (lay period), and the parent nematodes were removed. Then, the petri dish was left at 20° C. for 72 hours. The life test was started when the number of individuals per petri dish reached 10 to 20.
as §1
(§5) The individuals in each petri dish were transferred to a fresh petri dish every day. Information on date, the number of survivors, the number of deaths, the number of missing individuals, etc., was recorded in a score sheet. The petri dish was wrapped in Parafilm during storage. An individual was judged as being dead when no spontaneous behavior was seen and no response was found even by vibration stimulus or contact stimulus. Nematodes are often missing because of running out of the petri dish, being dried at the wall, crawling out from a gap in the medium, for example. Therefore, the number of missing individuals was recorded and excluded from the data. Individuals that died of the eclosion of their children in their bodies, which occurs frequently in certain variants, were recorded as BAG, and individuals that died of hernia were recorded as rupture.
(§6) Nematode variants can be used to determine how PQQ works. A plurality of petri dishes were prepared using the medium containing 5 mM PQQ prepared in Example 4. The life extension test was conducted in the same way as in Example 1 using the prepared petri dishes and each variant shown in Table 2. The results obtained without the addition of PQQ are indicated as 100 for a relative effect.

In series [7] the test system is nematode variant age-1 (hx546). As for the experimental part:
as §3, §4, §1, §5, §6

Series [8] has as its system nematode variant bli-3 (im-10), reduced activity of dual oxidase. As for the experimental part:
as §3, §4, §1, §5, §6

In series [9] the test system is nematode variant skn-1 (zu67). As for the experimental part: as §3, §4, §1, §5, §6
The subject of series [10] is nematode variant bli-3 (e767), reduced activity of dual oxidase. As for the experimental part: as §3, §4, §1, §5, §6
In series [11] the test system is nematode variant daf-2 (e1370). As for the experimental part: as §3, §4, §1, §5, §6
Series [12] has as its system nematode variant nsy-1 (ky400). As for the experimental part:
as §3, §4, §1, §5, §6

[13] abbreviates: 5 mM PQQ, result without PQQ = 100.

Turning to `CC(=O)CC1(O)C(=O)c2cc(C(=O)O)[nH]c2-c2c(C(=O)O)cc(C(=O)O)nc21` (stereo not drawn) [acetone adduct of pyrroloquinoline quinone], in [1], the Main impurities entry is listed as “PQQ” and the “Test substance (%)” value was found to be 92%. Moreover, in series [1] (petri dish medium with peptone), the “detection of IPQ (formed by reaction with amino acids of the medium)” value is “not detected”. Also, the “average life / life-extending effect” value in series [2] is on record as “tends to extend the average life”.

As to `O=C(O)c1cc2c(=O)c3ncn4c(C(=O)O)cc(C(=O)O)c(c2[nH]1)c34` [IPQ, trisodium salt of imidazoloquinone, reference compound], in series [1], the “Test substance (%)” value is given as “IPQ100%”. In addition, the “average life / life-extending effect” value in series [2] was “small life-extending effect”.

For the compound `O=C(O)c1cc(C(=O)O)c2c(n1)c(O)c(O)c1cc(C(=O)O)[nH]c12` [Reduced pyrroloquinoline quinone, reduced pyrroloquinoline quinone], the Main impurities entry in [3] (5 mM in agar medium petri dish) is recorded as “PQQ”; in [1], “IPQ”. The “Test substance (%)” value in [3] (5 mM in agar medium petri dish, LC and UV analysis) was “Reduced pyrroloquinoline quinone 85%”; in series [1], “Reduced pyrroloquinoline quinone 65%”. In series [3] (5 mM in agar medium, LC and UV spectrum analysis), the “share of all PQQs that maintained the reduced state” value is 86%.

Take `O=C(O)c1cc(C(=O)O)c2c(n1)C(=O)C(=O)c1cc(C(=O)O)[nH]c1-2` [PQQ, Pyrroloquinoline quinone disodium salt]: the “Average life after becoming adult” value in series [4] (5 mM PQQ in medium) stood at 14.7 ± 0.9 days; in series [5] (OB265bli-3 (e767), imEx144[bli-3genomic clone], 5 mM PQQ in medium), 19.8 ± 0.3 days; in series [2] (wild-type, 5 mM PQQ in medium), 15.0 ± 0.6 days; in series [6] (pmk-3 (ok-169), 5 mM PQQ in medium) it was 17.9 ± 0.4 days; in [7] (5 mM PQQ in medium), 23.4 ± 0.9 days; in series [8] (5 mM PQQ in medium) it was 11.7 ± 0.4 days. Besides, the “Average life after becoming adult” value came out at 12.8 ± 0.2 days in series [9] (skn-1 (zu67), 5 mM PQQ in medium); 13.5 ± 0.4 days in series [10] (5 mM PQQ in medium); 34.6 ± 0.9 days in series [11] (5 mM PQQ in medium); 16.0 ± 0.3 days in [12] (nsy-1 (ky400), 5 mM PQQ in medium). Moreover, the Relative value in [4] (setting [13]) is on record as 111; in series [5] (OB265bli-3 (e767), imEx144[bli-3genomic clone], 5 mM PQQ, result without PQQ = 100) it was 122; in series [2] (wild-type, 5 mM PQQ, result without PQQ = 100), 140; in [6] (pmk-3 (ok-169), 5 mM PQQ, result without PQQ = 100) it was 90; in [7] (setting [13]), 123; in series [8] (setting [13]) it was 99. The Relative value amounted to 96 in [9] (skn-1 (zu67), 5 mM PQQ, result without PQQ = 100); 87 in [10] (setting [13]); 121 in series [11] (setting [13]); 104 in series [12] (nsy-1 (ky400), 5 mM PQQ, result without PQQ = 100). The “life-extending effect (in words)” value in [5] (bli-3 gene-deficient line transfected with the bli-3 gene, Example 15, 5 mM PQQ) was “extended”; in [6] (pmk-3 variant, 5 mM PQQ) it was “strongly suppressed”; in series [9] (skn-1 gene variant, 5 mM PQQ), “strongly suppressed”; in [12] (nsy-1 variant, 5 mM PQQ) it was “strongly suppressed”. Moreover, in [2] (0.1, 1.0, 3.0, 5.0 mM in medium vs 0 mM, FIGS. 1 and 2), the “average life (survival rate vs rearing days after becoming adults)” value was “tends to extend the average life”.
